Results: patent US11332452B2, “Pesticidal compositions and methods” (priority 2019, dated 2022)

Columns and labels:
Type in all cases: in vivo
[1] = test system: Yellow Fever Mosquito (Aedes aegypti, AEDSAE); test: Insecticidal test for yellow fever mosquito (YFM), 96-well plate larval assay; settings: from 4000 ppm DMSO master solution, diluted; about 1 day-old larvae; room temperature; scored after 3 days
Experimental: Insecticidal Test for Yellow Fever Mosquito (Aedes aegypti, AEDSAE) (“YFM”)
Master plates containing 400 μg of a molecule dissolved in 100 μL of dimethyl sulfoxide (DMSO) (equivalent to a 4000 ppm solution) are used. A master plate of assembled molecules contains 15 μL per well. To this plate, 135 μL of a 90:10 water/acetone mixture is added to each well. A robot (Biomek® NXP Laboratory Automation Workstation) is programmed to dispense 15 μL aspirations from the master plate into an empty 96-well shallow plate (“daughter” plate). There are 6 reps (“daughter” plates) created per master. The created “daughter” plates are then immediately infested with YFM larvae.
The day before plates are to be treated, mosquito eggs are placed in Millipore water containing liver powder to begin hatching (4 g. into 400 mL). After the “daughter” plates are created using the robot, they are infested with 220 μL of the liver powder/larval mosquito mixture (about 1 day-old larvae). After plates are infested with mosquito larvae, a non-evaporative lid is used to cover the plate to reduce drying. Plates are held at room temperature for 3 days prior to grading. After 3 days, each well is observed and scored based on mortality.

[2] = test system: Beet Armyworm (Spodoptera exigua, LAPHEG); test: Insecticidal test for beet armyworm (BAW), 128-well diet tray assay; settings: 168 h, 50 μg/cm^2 of test compound on artificial diet, second instar larvae, 25° C., five to seven days, average of eight wells, read-out: BAW % Control (or Mortality) rating
Experimental: Insecticidal Test for Beet Armyworm (Spodoptera exigua, LAPHEG) (“BAW”)
(§1) Bioassays on beet armyworm (BAW; Spodoptera exigua: Lepidoptera) are conducted using a 128-well diet tray assay. One to five second instar BAW larvae are placed in each well (3 mL) of the diet tray that had been previously filled with 1 mL of artificial diet to which 50 μg/cm^2 of the test compound (dissolved in 50 μL of 90:10 acetone-water mixture) had been applied (to each of eight wells) and then allowed to dry. Trays are covered with a clear self-adhesive cover, vented to allow gas exchange, and held at 25° C., 14:10 light-dark for five to seven days. Percent mortality is recorded for the larvae in each well; activity in the eight wells is then averaged.

[3] = test system: Cabbage Looper (Trichloplusia Ni, TRIPNI); test: Insecticidal test for cabbage looper (CL), 128-well diet tray assay; settings: Trichoplusia ni, 168 h, read-out: CL % Control (or Mortality) rating
Experimental: Insecticidal Test for Cabbage Looper (Trichloplusia Ni, TRIPNI) (“CL”)
as §1, with “cabbage looper (CL; Trichloplusia ni:” for “beet armyworm (BAW; Spodoptera exigua:”, “CL” for “BAW”

SMILES	YFM % Control (or Mortality) rating [1]	mortality at 50 µg/cm2 [2]	mortality at 50 µg/cm2 [3]
CC(Cc1ccc(NC(=O)Nc2ccc(OC(F)(F)F)cc2)cc1)NC(=O)/N=C1\SCC(=O)N1c1cccc2c1CCCC2 (stereo not drawn) [Compound A42, (Z)-1-(4-(2-(3-(4-Oxo-3-(5,6,7,8-tetrahydronaphthalen-1-yl)thiazolidin-2-ylidene)ureido)propyl)phenyl)-3-(4-(trifluoromethoxy)phenyl)urea]	A (80-100)	50 to 100%	50 to 100%
CC(C)c1ccc(Cl)cc1N1C(=O)CS/C1=N\C(=O)NCCc1ccc(NC(=O)Nc2ccc(C(F)(F)F)cc2)cc1 [Compound A13, (Z)-1-(4-(2-(3-(3-(5-Chloro-2-isopropylphenyl)-4-oxothiazolidin-2-ylidene)ureido)ethyl)phenyl)-3-(4-(trifluoromethyl)phenyl)urea]	A (80-100)	50 to 100%	50 to 100%
CCc1cccc(C)c1N1C(=O)CS/C1=N\C(=O)NCCc1ccc(NC(=O)Nc2ccc(OC(F)(F)F)cc2)cc1 [Compound A23, (Z)-1-(4-(2-(3-(3-(2-Ethyl-6-methylphenyl)-4-oxothiazolidin-2-ylidene)ureido)ethyl)phenyl)-3-(4-(trifluoromethoxy)phenyl)urea]	A (80-100)	50 to 100%	50 to 100%
Cc1ccc(C(C)C)c(N2C(=O)CS/C2=N\C(=O)Nc2ccc(CCNC(=O)c3ccc(OC(F)(F)F)cc3)cc2)c1 [Compound A50, (Z)—N-(4-(3-(3-(2-isopropyl-5-methylphenyl)-4-oxothiazolidin-2-ylidene)ureido)phenethyl)-4-(trifluoromethoxy)benzamide]	A (80-100)	50 to 100%	50 to 100%
Cc1ccc(C(C)C)c(-n2ccs/c2=N\C(=O)NCCc2ccc(NC(=O)Nc3ccc(C(F)(F)F)cc3)cc2)c1 [Compound A14, (Z)-1-(4-(2-(3-(3-(2-Isopropyl-5-methylphenyl)thiazol-2(3H)-ylidene)ureido)ethyl)phenyl)-3-(4-(trifluoromethyl)phenyl)urea]	A (80-100)	50 to 100%	50 to 100%
COc1ccc(N2C(=O)CS/C2=N\C(=O)NCCc2ccc(NC(=O)Nc3ccc(C(F)(F)F)cc3)cc2)c(C)c1 [Compound A10, (Z)-1-(4-(2-(3-(3-(4-Methoxy-2-methylphenyl)-4-oxothiazolidin-2-ylidene)ureido)ethyl)phenyl)-3-(4-(trifluoromethyl)phenyl)urea]	A (80-100)	50 to 100%	50 to 100%
CC(Cc1ccc(NC(=O)Nc2ccc(OC(F)(F)F)cc2)cc1)NC(=O)/N=C1\SCC(=O)N1c1cc(Cl)ccc1OC(F)(F)F (stereo not drawn) [Compound A36, (Z)-1-(4-(2-(3-(3-(5-Chloro-2-(trifluoromethoxy)phenyl)-4-oxothiazolidin-2-ylidene)ureido)propyl)phenyl)-3-(4-(trifluoromethoxy)phenyl)urea]	A (80-100)	50 to 100%	50 to 100%
Cc1ccc(C(C)C)c(-n2ccs/c2=N\C(=O)NC(C)Cc2ccc(NC(=O)Nc3ccc(OC(F)(F)F)cc3)cc2)c1 (stereo not drawn) [Compound A33, (Z)-1-(4-(2-(3-(3-(2-Isopropyl-5-methylphenyl)thiazol-2(3H)-ylidene)ureido)propyl)phenyl)-3-(4-(trifluoromethoxy)phenyl)urea]	A (80-100)	50 to 100%	50 to 100%
Cc1ccc(C(C)C)c(N2C(=O)CS/C2=N\C(=O)NCCc2ccc(NC(=S)Nc3ccc(OC(F)(F)F)cc3)cc2)c1 [Compound A46, (Z)-1-(3-(2-isopropyl-5-methylphenyl)-4-oxothiazolidin-2-ylidene)-3-(4-(3-(4-(trifluoromethoxy)phenyl)thioureido)phenethyl)urea]	A (80-100)	50 to 100%	50 to 100%
